Several values for one entry are separate records, joined by “and”; a condition that tells them apart may be missing. Identical values can stand only once.
Assays:
[1] = target: T1, DGKζ (hDGKzeta(1-928)-N-His) (Homo sapiens, UniProt Q13574); test: In vitro DGK inhibition assay, DGKzeta ADP Glo (in house); type: biochemical; settings: 2 nM DGKζ, 50 μM ATP, 125 uM DLG in liposomes, 1 hour reaction
T1 construct: hDGKzeta(1-928)-N-His; His (N); made in house; host or cells: Sf21 insect cells (baculovirus)
T1 sequence (Q13574 whole entry): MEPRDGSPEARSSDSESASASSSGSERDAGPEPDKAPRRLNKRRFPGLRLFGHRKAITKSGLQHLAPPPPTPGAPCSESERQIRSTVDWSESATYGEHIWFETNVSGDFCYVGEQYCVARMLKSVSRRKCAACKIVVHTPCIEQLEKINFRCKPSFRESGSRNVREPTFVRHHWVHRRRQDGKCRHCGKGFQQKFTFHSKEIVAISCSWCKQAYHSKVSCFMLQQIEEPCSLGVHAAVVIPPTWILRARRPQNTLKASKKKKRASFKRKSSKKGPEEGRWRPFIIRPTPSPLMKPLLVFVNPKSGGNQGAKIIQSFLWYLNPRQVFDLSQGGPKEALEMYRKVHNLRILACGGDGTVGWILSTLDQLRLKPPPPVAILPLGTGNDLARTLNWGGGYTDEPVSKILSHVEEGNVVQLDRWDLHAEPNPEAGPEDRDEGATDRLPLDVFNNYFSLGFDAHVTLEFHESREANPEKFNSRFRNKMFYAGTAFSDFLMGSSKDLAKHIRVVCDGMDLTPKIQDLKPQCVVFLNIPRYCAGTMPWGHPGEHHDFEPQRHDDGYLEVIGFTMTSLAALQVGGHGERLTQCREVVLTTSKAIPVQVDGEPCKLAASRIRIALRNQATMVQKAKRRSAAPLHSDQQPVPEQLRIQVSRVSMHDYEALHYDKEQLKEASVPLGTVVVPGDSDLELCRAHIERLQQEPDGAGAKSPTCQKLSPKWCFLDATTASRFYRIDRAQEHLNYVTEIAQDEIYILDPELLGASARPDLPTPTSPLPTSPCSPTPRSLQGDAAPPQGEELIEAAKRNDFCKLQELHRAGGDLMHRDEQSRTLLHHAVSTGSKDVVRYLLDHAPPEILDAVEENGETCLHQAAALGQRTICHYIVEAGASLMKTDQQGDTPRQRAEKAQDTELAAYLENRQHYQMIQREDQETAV
Experimental: DGKα and ζ kinases use ATP to phosphorylate the substrate 1,2-dilauroyl-sn-glycerol (DLG, incorporated in the liposomes). ATP is converted to ADP as a result of this enzymatic reaction. After the kinase reaction, an ATP-depletion reagent is added to terminate the kinase reaction and deplete any remaining ATP, leaving only ADP. Second, a detection reagent is added to simultaneously convert ADP to ATP and allow the newly synthesized ATP to be converted to light using a coupled luciferase/luciferin reaction.
Full length DGKα and ζ were expressed in Sf21 insect cells by infecting the cells with the baculovirus stock at MOI of 2. Purification of both enzymes was performed as previously described by Takahashi et al., PeerJ, 2018 (Takahashi, D.; Sakane, F. Expression and purification of human diacylglycerol 5 kinase alpha from baculovirus-infected insect cells for structural studies. PeerJ2018, 6, No. e5449).
A concentrated liposome solution was prepared in assay buffer without DTT and BSA: 2 mM of DLG in 21 mM of total liposome (2 mM DLG/8 mM PS/11 mM PC). The reaction mixtures contain the assay buffer with a final DLG concentration of 125 uM ATP concentrations of 25 μM (for DGKA assay) or 50 μM (for DGKZ assay). The reactions were started by addition of DGK α and ζ kinases at 4 nM and 2 nM final concentrations, respectively. After 1 hour reaction, the amount of ADP formed was detected with the ADP-Glo kinase assay (Promega) according to the manufacturer instructions. Compounds were added in 11-points dose response, starting at […], 1:3 dilutions, with a final DMSO concentration of 2%. The multidrop combi was used as a liquid handler and luminescence was read with 0.5 s by the envision reader (PE).

primary human T-cells [2] = test: Proliferation assay (5 days, CellTiter-Glo, CD3-stimulated T-cells); type: cell-based; settings: for EC50: CD3-stimulated primary human T-cells, 5 days, CellTiter-Glo, fitted sigmoidal curve, read-out: Tcell Proliferation CD3 EC50; for Emax proliferation (% activation): CD3 condition, normalised to DMSO (neutral) and 20 μM reference compound A1 = 100%
Experimental: (§1) As readouts for T-cell activation, 1L2 secretion after 24 hours and proliferation after 5 days was measured. Increases in IL2 secretion and proliferation upon compound treatment were assessed as the % of the maximum of reference compound A1. WO 2016/139181 discloses reference compound A1 as example 70. As a counter screen and to make sure that no unwanted TCR-independent activation was triggered, PBS conditions were run for all compounds.
Expanded primary human T-cells are thawed and cultured in RPMI 1640 (Gibco, #61870-010)+5% human serum (HS, Sigma, #H3667)+1 mM Sodium Pyruvate (Gibco, #11360-039)+50 μM 2-mercaptoethanol (Gibco, #31350-010) and 1× Pen-Strep (Life Technologies, #15140122) medium at density of 2 Mio/ml for 3 hours in 5% CO2, 37° C. and 95% humidity. For coating of plates, PBS++ only or PBS++ with CD3 antibody (concentration depending on donor and determined by CD3 titrations) is added 100 μl/well to Poly-D Lysine coated 96-well plates. Plates are sealed and incubated at room temperature for 3 hours on a table-top rocking platform. After incubation, plates are washed once with PBS−− and filled with 40 μl/well culture medium only. Compounds are then added (see next section) to medium only plates. After 3 hours of culturing the T-cells, cells are filtered through a cell strainer (Miltenyi Biotech, #130-041-407), counted again and concentration is adjusted to 1.25 Mio/ml.
Cells are then seeded 80 μl/well to the 40 μl/well including dispensed compounds according to plate layout. By adding cells, compounds are further diluted 1:3, and resulting in 100 k cells/120 μl/well. After 48 hours 40 μl of supernatant is collected carefully from the top while not disturbing the cells. Cells are assessed for proliferation 5 days later by measuring […] using CellTiterGlo (Promega).
(§2) Compounds were added in a 5 or 6 pt dose response with the Tecan D300e Digital Dispenser, all conditions 3 times more concentrated than the end-concentration, since cells are added afterwards (80 μl cells to 40 μl prepared medium with treatment). The DR was starting at 20 μM or 10 μM final top concentration and a dilution factor of 3.333. The positive control was the reference compound A1 that was added in a dose response as well, additionally to 3 wells of only 20 μM representing the positive stimulator control. All wells were normalized with DMSO to a final concentration of 0.6% (0.2% end-concentration).
After 5 days, for detection of ATP which is directly proportional to the number of cells present per well, the CellTiter-Glo® 2.0 Reagent is used. After visual control for toxicity or precipitations of the tested compounds, the plates are equilibrated to room temperature for 45 minutes. CellTiter-Glo® 2.0 Reagent is equilibrated to room temperature as well. After equilibration, an equal amount of CellTiter-Glo reagent is added to the cells (80 μl/well) with an electronic multichannel pipette. Plates are placed on a rocking platform for 15 minutes at room temperature. After incubation, the bottom of the plates is sealed with backing tape. Luminescence is measured with PHERAstar FSX (interval time 0.5 sec, gain 3000, focal height 15 mm) and exported as CSV file for analysis in Genedata screener.
CD3 and PBS plates were analysed separately in Genedata Screener using Roche Normalization PCT_POS_CTRL with DMSO set as Neutral Control and 20 μM of the reference compound A1 set as Stimulator Control/100%.
For CD3 conditions EC50 and Emax of the fitted sigmoidal curve were reported. If no curve could be fitted, the EC50 was reported as blank field and the Emax was based on individual data points. […] Compounds which activate unstimulated cells (see IL2 measurements) or compounds which negatively affected viability were flagged.

primary human T-cells [3] = test: IL2 secretion measurements (24 h, CD3-stimulated T-cells, PBS counter screen); type: cell-based; settings: for EC50: CD3-stimulated primary human T-cells, IL2 secretion, fitted sigmoidal curve, read-out: Tcell IL2 CD3 EC50; for Emax IL2 (% activation): CD3 condition, normalised to DMSO (neutral) and 20 μM reference compound A1 = 100%
Experimental: as §1
Expanded primary human T-cells were thawed and cultured in RPMI 1640 (Gibco, #61870-010)+5% human serum (HS, Sigma, #H3667)+1 mM Sodium Pyruvate (Gibco, #11360-039)+50 μM 2-mercaptoethanol (Gibco, #31350-010) and 1× Pen-Strep (Life Technologies, #15140122) medium at density of 2 Mio/ml for 3 hours in 5% CO2, 37° C. and 95% humidity. For coating of plates, […] or PBS++ with CD3 antibody (concentration depending on donor and determined by CD3 titrations) was added 100 μl/well to Poly-D Lysine coated 96-well plates. Plates were sealed and incubated at room temperature for 3 hours on a table-top rocking platform. After incubation, plates were washed once with PBS−− and filled with 40 μl/well culture medium only. Compounds were then added (see next section) to medium only plates. After 3 hours of culturing the T-cells, cells were filtered through a cell strainer (Miltenyi Biotech, #130-041-407), counted again and concentration was adjusted to 1.25 Mio/ml.
Cells were then seeded 80 μl/well to the 40 μl/well including dispensed compounds according to plate layout. By adding cells, compounds were further diluted 1:3, and resulting in 100 k cells/120 μl/well. After 24 hours 40 μl of supernatant was collected carefully from the top while not disturbing the cells and transferred into a round bottom 96 well plate. Collected and frozen supernatant was used for detection of IL2 using the IL-2 Human ProQuantum Immunoassay Kit (Invitrogen) or using the Human IL-2 ELISA Kit (Thermo Fisher).
as §2
The immunoassay is done following the manufacturer's manual (Invitrogen, #A35603). Additional information: For the immunoassay, MicroAmp™ EnduraPlate™ Optical 384-Well plates are used. Frozen supernatant is thawed and centrifuged for 5 minutes at 1000×g, both steps at 4° C. After centrifugation, required sample amount is taken from the top, and in a separate LightCycler V-bottom plate (working plate) diluted with assay dilution buffer, dilution factor depending on the PBS or CD3 condition but at least 1:3. IL-2 standard and blanks are prepared in the same V-bottom plate, standard with a range of 0.0128-5000 pg/ml (extended version). After preparation, 5 μl of sample dilutions or standard/blanks are transferred to the optical 384-well plate (assay plate) and the 10 μl reaction protocol is being followed. For measurement, the QuantStudio 12K Flex system is used. Raw data is extracted and IL-2 concentrations are calculated with the Thermo Fisher online app (apps.thermofisher.com/apps/proquantum).
ELISA is done following the manufacturer's manual (Thermo Fisher Scientific, #88-7025-88). Additional information: For the ELISA Nunc MaxiSorp 96 well plates are used. Frozen supernatant is thawed and centrifuged for 5 minutes at 1000×g, both steps at 4° C. […]

| Compound | IC50 [1] | EC50 (primary human T-cells [2]) | Emax proliferation (% activation) (primary human T-cells [2]) | EC50 (primary human T-cells [3]) | Emax IL2 (% activation) (primary human T-cells [3]) | EC50 (primary human T-cells [2]; Homo sapiens, T-cell, 120 h) | EC50 (primary human T-cells [3]; Homo sapiens, T-cell) |
| --- | --- | --- | --- | --- | --- | --- | --- |
| COc1ccc(-c2ccc(CN3C(=O)[C@@H](N)CS(=O)(=O)c4ccc(-c5nnc(C(C)(C)C#N)o5)cc43)cc2)cc1 [Example 45, 2-[5-[(3R)-3-amino-5-[[4-(4-methoxyphenyl)phenyl]methyl]-1,1,4-trioxo-2,3-dihydro-1λ^6,5-benzothiazepin-7-yl]-1,3,4-oxadiazol-2-yl]-2-methyl-propanenitrile] | 467 nM and 3210 nM | – | – | – | – | – | – |
| COC(=O)N1CC2CC(c3nnc(-c4ccc5c(c4)N(Cc4ccc(-c6noc(C(F)(F)F)n6)cc4)C(=O)[C@@H](N)CS5(=O)=O)o3)(C2)C1 [Example 61, methyl 1-[5-[(3R)-3-amino-1,1,4-trioxo-5-[[4-[5-(trifluoromethyl)-1,2,4-oxadiazol-3-yl]phenyl]methyl]-2,3-dihydro-1λ^6,5-benzothiazepin-7-yl]-1,3,4-oxadiazol-2-yl]-3-azabicyclo[3.1.1]heptane-3-carboxylate] | – | 216 nM | 228 % activation | 606 nM | 241 % activation | – | – |
| COC(F)(c1nnc(-c2ccc3c(c2)N(Cc2ccc(-c4nnc(C(F)(F)F)o4)cc2)C(=O)[C@@H](N)CS3(=O)=O)o1)C(F)(F)F (stereo partly drawn) [Example 67, (3R)-3-amino-1,1-dioxo-7-[5-(1,2,2,2-tetrafluoro-1-methoxy-ethyl)-1,3,4-oxadiazol-2-yl]-5-[[4-[5-(trifluoromethyl)-1,3,4-oxadiazol-2-yl]phenyl]methyl]-2,3-dihydro-1λ^6,5-benzothiazepin-4-one] | – | – | 119 % activation | – | 168 % activation | 262 nM | 739 nM |
| N[C@H]1CS(=O)(=O)c2ccc(-c3nnc(N4CCC(F)(F)CC4)o3)cc2N(Cc2ccc(-c3noc(C4CC4)n3)cc2)C1=O [Example 69, (3R)-3-amino-5-[[4-(5-cyclopropyl-1,2,4-oxadiazol-3-yl)phenyl]methyl]-7-[5-(4,4-difluoro-1-piperidyl)-1,3,4-oxadiazol-2-yl]-1,1-dioxo-2,3-dihydro-1λ^6,5-benzothiazepin-4-one] | – | – | 125 % activation | – | 83 % activation | 409 nM | 448 nM |
| N[C@H]1CS(=O)(=O)c2ccc(-c3nnc(N4CCC(F)(F)CC4)o3)cc2N(Cc2ccc(-c3nnc(C(F)F)o3)cc2)C1=O [Example 70, (3R)-3-amino-5-[[4-[5-(difluoromethyl)-1,3,4-oxadiazol-2-yl]phenyl]methyl]-7-[5-(4,4-difluoro-1-piperidyl)-1,3,4-oxadiazol-2-yl]-1,1-dioxo-2,3-dihydro-1λ^6,5-benzothiazepin-4-one] | – | – | 76 % activation | – | 43 % activation | 2760 nM | > 10000 nM |
| N[C@H]1CS(=O)(=O)c2ccc(-c3nnc(N4CCOC(F)(F)C4)o3)cc2N(Cc2ccc(-c3nnc(C(F)F)o3)cc2)C1=O [Example 82, (3R)-3-amino-5-[[4-[5-(difluoromethyl)-1,3,4-oxadiazol-2-yl]phenyl]methyl]-7-[5-(2,2-difluoromorpholin-4-yl)-1,3,4-oxadiazol-2-yl]-1,1-dioxo-2,3-dihydro-1λ^6,5-benzothiazepin-4-one] | – | – | 78 % activation | – | 25 % activation | 6120 nM | > 10000 nM |
| NC(c1nnc(-c2ccc3c(c2)N(Cc2ccc(-c4ccc(C(F)(F)F)cc4)cc2)C(=O)[C@@H](N)CS3(=O)=O)o1)C(F)(F)F (stereo partly drawn) [Example 151, (3R)-3-amino-7-[5-(1-amino-2,2,2-trifluoro-ethyl)-1,3,4-oxadiazol-2-yl]-1,1-dioxo-5-[4-[4-(trifluoromethyl)phenyl]phenyl] methyl 1-2,3-dihydro-1λ^6,5-benzothiazepin-4-one] | – | – | 105 % activation | – | 65 % activation | 1850 nM | 903 nM |

From US20260138976A1 (Hoffmann-La Roche Inc., priority 2022, published 2026)
